Entries after “also recorded” stand apart in the source; their conditions may differ.
Columns and labels:
[1] = literature statement, organisms not given; cited from earlier work
[2] = tested on: Candida albicans (ATCC 36082); assay: solid-phase radial diffusion antimicrobial assay, fungus; format: cell-based; details: pH 5.5 or pH 7.5, read after 24 h
Protocol: (§1) Standard radial diffusion assays were conducted using 10 μg of specified peptide: defensin HNP-1 (HNP); brazzein (BRZ); charybdotoxin (CTX); or metallothionein II (MTL). Recombinant brazzein reflecting the published 3-dimensional structure (1BRZ) as determined by nuclear magnetic resonance spectroscopy was kindly provided by Drs. J. L. Markley and F. M. Assadi-Porter, the University of Wisconsin 25. Charybdotoxin, metallothionein II, and defensin HNP-1 were obtained from commercial sources. Antimicrobial activity was assessed using a well-established solid-phase diffusion method as described by Tang et al., Infect. Immun. 70: 6524-6533 (2002). Assays included well characterized organisms: Staphylococcus aureus (ATCC 27217, Gram-positive coccus); Bacillus subtilis (ATCC 6633, Gram-positive bacillus); Escherichia coli (strain ML-35, Gram-negative bacillus); and Candida albicans (ATCC 36082, fungus). In brief, organisms were cultured to logarithmic phase and inoculated (106 colony forming units/ml) into buffered molecular-biology grade agarose at the indicated pH. Peptides resuspended in sterile deionized water were introduced into wells formed in the underlay, and incubated for 3 h at 37° C. Nutrient-containing overlay medium was then applied, and assays incubated at 37° C. or 30° C. for bacteria or fungi, respectively. After 24 h, zones of complete or partial inhibition were measured. All assays were repeated independently a minimum of two times at pH 5.5 (panels A-D) or pH 7.5 (panels E-H) to assess the influences of pH on peptide antimicrobial activities versus microorganisms. Histograms express mean (±standard deviation) zones of complete (blue) or incomplete (yellow) inhibition of growth. […] Note differences in scale.
These peptides were tested for antimicrobial activity against a panel of Gram-positive (Staphylococcus aureus, Bacillus subtilis) and Gram-negative (Escherichia coli) bacteria, and the fungus Candida albicans, using a well-established and sensitive in vitro assay [Antimicrobial activity was assessed using a well-established solid-phase diffusion method. Assays included well-characterized organisms: Staphylococcus aureus (ATCC 27217, Gram-positive); Bacillus subtilis (ATCC 6633, Gram-positive); Escherichia coli (strain ML-35, Gram-negative); and Candida albicans (ATCC 36082, fungus). In brief, organisms were cultured to logarithmic phase and inoculated at a density of 10^6 colony forming units/ml in buffered molecular grade agarose at the indicated pH. Five μg of peptide resuspended in sterile deionized water were introduced into wells formed in the underlay, and incubated for 3 h at 37° C. […] After 24 h, zones of complete or partial inhibition were measured. […]

[3] = tested on: Staphylococcus aureus (ATCC 27217), Bacillus subtilis (ATCC 6633), Escherichia coli (strain ML-35); assay: solid-phase radial diffusion antimicrobial assay, bacteria; format: cell-based; details: for antimicrobial activity compared with standard control defensin HNP-1: pH-specific, organism not specified (panel of bacteria and C. albicans); for antimicrobial activity against bacteria (zones of complete or partial inhibition): radial diffusion, pH 5.5 or pH 7.5, read after 24 h, S. aureus, B. subtilis, E. coli
Protocol: as §1
These peptides were tested for antimicrobial activity against a panel of Gram-positive (Staphylococcus aureus, Bacillus subtilis) and Gram-negative (Escherichia coli) bacteria, and the fungus Candida albicans, using a well-established and sensitive in vitro assay [Antimicrobial activity was assessed using a well-established solid-phase diffusion method. Assays included well-characterized organisms: Staphylococcus aureus (ATCC 27217, Gram-positive); Bacillus subtilis (ATCC 6633, Gram-positive); Escherichia coli (strain ML-35, Gram-negative); and Candida albicans (ATCC 36082, fungus). In brief, organisms were cultured to logarithmic phase and inoculated at a density of 10^6 colony forming units/ml in buffered molecular grade agarose at the indicated pH. Five μg of peptide resuspended in sterile deionized water were introduced into wells formed in the underlay, and incubated for 3 h at 37° C. Nutrient-containing overlay medium was then applied, and assays incubated at 37° C. or 30° C. for bacteria or fungi, respectively. Defensin HNP-1 was tested in parallel as a standard control. After 24 h, zones of complete or partial inhibition were measured. All assays were repeated independently a minimum of two times. Tang et al., Infect. Immun. 70:6524 (2002) for detailed methodology.].

Row | Molecule | direct antimicrobial activity [1] | antimicrobial activity against C. albicans (zones of complete or partial inhibition) [2] | antimicrobial activity against bacteria (zones of complete or partial inhibition) [3] | further results
1 | IP-10/CXCL10: interferon-γ inducible protein-10 kDa | direct antimicrobial activity |  |  | 
2 | ITAC/CXCL11: interferon-inducible T cell α chemoattractant | direct antimicrobial activity |  |  | 
3 | MIG/CXCL9: monokine induced by interferon-γ | direct antimicrobial activity |  |  | 
4 | PF-4: chemokine, human platelet factor-4 | direct antimicrobial activity |  |  | 
5 | RANTES: β-chemokine, releasable upon activation normal T cell expressed/secreted | direct antimicrobial activity |  |  | 
6 | brazzein: sweetener protein from Pentadiplandra (J'Oblie berry); recombinant, structure 1BRZ (QDKCKKVYENYPVSKCQLANQCNYDCKLDKHARSGECFYDEKRNLQCICDYCEY; UniProt P56552 1-54, looked up) |  | direct antimicrobial activities; also recorded: previously unrecognized antimicrobial activity; also recorded: exerted direct antimicrobial activity | direct antimicrobial activities; also recorded: previously unrecognized antimicrobial activity; also recorded: exerted direct antimicrobial activity | antimicrobial activity compared with standard control defensin HNP-1 [3]: in some conditions exceeded that of HNP-1
7 | charybdotoxin |  | direct antimicrobial activities; also recorded: previously unrecognized antimicrobial activity; also recorded: exerted direct antimicrobial activity | direct antimicrobial activities; also recorded: previously unrecognized antimicrobial activity; also recorded: exerted direct antimicrobial activity | antimicrobial activity compared with standard control defensin HNP-1 [3]: in some conditions exceeded that of HNP-1
8 | metallothionein II: prototype metallothionein (Saccharomyces, 1AOO) lacking the γ-core motif; comparator predicted to lack antimicrobial activity (QNEGHECQCQCGSCKNNEQCQKSCSCPTGCNSDDKCPCGNKSEETKKSCCSGK; UniProt P0CX80 9-61, looked up) |  | devoid of antimicrobial activity; also recorded: failed to exert antimicrobial activity | devoid of antimicrobial activity; also recorded: failed to exert antimicrobial activity | antimicrobial activity against C. albicans (zones of complete or partial inhibition) ([2]; listed as Metallothionein II): lacked antimicrobial activity; antimicrobial activity against bacteria (zones of complete or partial inhibition) ([3]; listed as Metallothionein II): lacked antimicrobial activity
9 | PBP: chemokine, platelet basic peptide (protein, UniProt P02775 35-128, looked up, Platelet basic protein, chemokine, platelet basic peptide) Platelet basic protein: SSTKGQTKRNLAKGKEESLDSDLYAELRCMCIKTTSGIHPKNIQSLEVIGKGTHCNQVEVIATLKDGRKICLDPDAPRIKKIVQKKLAGDESAD | direct antimicrobial activity |  |  | 

From patent US20050244916A1, “Methods for predicting protein activity based on identification of multidimensional signatures” (priority 2004, published 2005)
